Assay results taken from patent publication US9765075B2, “Substituted bridged urea analogs as sirtuin modulators” (GLAXOSMITHKLINE LLC, priority 2013, dated 2017).
Where a chain is given by its changes, count along the chain named.

Tests used:
Experiment in all cases: SIRT1 activation dose-response, OAcADPr assay with Ac-p53(W5) substrate
Type in all cases: biochemical
full-length hSIRT1 I223A = biological target: T1, full-length hSIRT1 I223A (Homo sapiens, UniProt Q96EB6, I223A); conditions: for EC50: hSIRT1 I223A, activation dose-response, Ac-p53(W5) substrate
T1 construct: The following point mutants of full-length hSIRT1 were generated; His6 (C); made in house
T1 sequence (Q96EB6 1-747 I223A): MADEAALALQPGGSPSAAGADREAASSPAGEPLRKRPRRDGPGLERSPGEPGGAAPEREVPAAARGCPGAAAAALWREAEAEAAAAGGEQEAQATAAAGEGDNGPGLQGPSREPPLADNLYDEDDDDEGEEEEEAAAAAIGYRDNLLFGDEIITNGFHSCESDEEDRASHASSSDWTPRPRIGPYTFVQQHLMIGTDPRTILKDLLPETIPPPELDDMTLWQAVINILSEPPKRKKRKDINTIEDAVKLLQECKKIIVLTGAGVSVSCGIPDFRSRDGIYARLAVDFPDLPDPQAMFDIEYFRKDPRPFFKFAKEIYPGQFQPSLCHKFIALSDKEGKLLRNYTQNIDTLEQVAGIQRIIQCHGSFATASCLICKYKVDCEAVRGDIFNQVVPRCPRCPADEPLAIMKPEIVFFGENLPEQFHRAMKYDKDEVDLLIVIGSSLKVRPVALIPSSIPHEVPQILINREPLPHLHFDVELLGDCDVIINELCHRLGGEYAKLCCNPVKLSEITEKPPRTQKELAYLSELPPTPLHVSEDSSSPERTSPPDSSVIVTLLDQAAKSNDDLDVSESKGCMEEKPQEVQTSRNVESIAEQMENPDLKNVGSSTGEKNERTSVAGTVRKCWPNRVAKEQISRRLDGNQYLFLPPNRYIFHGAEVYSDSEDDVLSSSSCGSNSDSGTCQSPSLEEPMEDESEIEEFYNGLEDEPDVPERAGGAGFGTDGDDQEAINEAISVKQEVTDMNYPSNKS

full-length hSIRT1 Q222A = biological target: T2, full-length hSIRT1 Q222A (Homo sapiens, UniProt Q96EB6, Q222A); conditions: for EC50: hSIRT1 Q222A, activation dose-response, Ac-p53(W5) substrate
T2 construct: The following point mutants of full-length hSIRT1 were generated; made in house
T2 sequence (Q96EB6 1-747 Q222A): T1 sequence (Q96EB6 1-747 I223A) with Q222A, A223I

full-length hSIRT1 V224A = biological target: T3, full-length hSIRT1 V224A (Homo sapiens, UniProt Q96EB6, V224A); conditions: for EC50: hSIRT1 V224A, activation dose-response, Ac-p53(W5) substrate
T3 construct: The following point mutants of full-length hSIRT1 were generated; His6 (C); made in house
T3 sequence (Q96EB6 1-747 V224A): T1 sequence (Q96EB6 1-747 I223A) with A223I, V224A

EC50 fold shift (mutant EC50/wild-type EC50) (full-length hSIRT1 I223A) | RVmax fold shift = (wild-type RVmax−1)/(mutant RVmax−1) (full-length hSIRT1 I223A) | EC50 (full-length hSIRT1 I223A) [nM] | EC50 fold shift (mutant EC50/wild-type EC50) (full-length hSIRT1 Q222A) | RVmax fold shift = (wild-type RVmax−1)/(mutant RVmax−1) (full-length hSIRT1 Q222A) | EC50 (full-length hSIRT1 Q222A) [nM] | EC50 fold shift (mutant EC50/wild-type EC50) (full-length hSIRT1 V224A) | RVmax fold shift = (wild-type RVmax−1)/(mutant RVmax−1) (full-length hSIRT1 V224A) | EC50 (full-length hSIRT1 V224A) [nM] | SMILES
4.91 | 0.97 | 2360 | 1.07 | 1.22 | 510 | 1.87 | 0.79 | 900 | Cc1cnc2c(NC(=O)N3c4nc(-c5cccc(C(F)(F)F)c5)ccc4N4CC[C@H]3C4)cccc2n1 [Example 8]
2.51 | 6.90 | 5510 | 0.91 | 0.98 | 2010 | 1.18 | 0.72 | 2600 | O=C(Nc1ccccn1)N1c2nc(-c3cccc(C(F)(F)F)c3)ccc2N2CC[C@H]1C2 [Example 7]
